Assays:
VEGFR2, unphosphorylated = VEGFR2, unphosphorylated (Homo sapiens (Human), UniProt P35968); test: VEGFR ADP GLO Assay; type: biochemical
[1] = molecular target: His6-TEV-PDGFRβ (557-1016) (Homo sapiens (Human), UniProt P09619); test: PDGFRβ HTRF Assay; type: biochemical; details: read-out: PDGFR HTRF IC50
Summary of the method: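 HTRF KinEASE-TK readout (665/620 nm ratio) of TK-biotin substrate phosphorylation by His-tagged PDGFRβ kinase domain. Enzyme and inhibitor preincubated 30 min, then ATP/substrate added for 3 h at room temperature before 60 min EDTA quench/detection.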

VEGFR2, unphosphorylated, sequence (P35968 20-1356): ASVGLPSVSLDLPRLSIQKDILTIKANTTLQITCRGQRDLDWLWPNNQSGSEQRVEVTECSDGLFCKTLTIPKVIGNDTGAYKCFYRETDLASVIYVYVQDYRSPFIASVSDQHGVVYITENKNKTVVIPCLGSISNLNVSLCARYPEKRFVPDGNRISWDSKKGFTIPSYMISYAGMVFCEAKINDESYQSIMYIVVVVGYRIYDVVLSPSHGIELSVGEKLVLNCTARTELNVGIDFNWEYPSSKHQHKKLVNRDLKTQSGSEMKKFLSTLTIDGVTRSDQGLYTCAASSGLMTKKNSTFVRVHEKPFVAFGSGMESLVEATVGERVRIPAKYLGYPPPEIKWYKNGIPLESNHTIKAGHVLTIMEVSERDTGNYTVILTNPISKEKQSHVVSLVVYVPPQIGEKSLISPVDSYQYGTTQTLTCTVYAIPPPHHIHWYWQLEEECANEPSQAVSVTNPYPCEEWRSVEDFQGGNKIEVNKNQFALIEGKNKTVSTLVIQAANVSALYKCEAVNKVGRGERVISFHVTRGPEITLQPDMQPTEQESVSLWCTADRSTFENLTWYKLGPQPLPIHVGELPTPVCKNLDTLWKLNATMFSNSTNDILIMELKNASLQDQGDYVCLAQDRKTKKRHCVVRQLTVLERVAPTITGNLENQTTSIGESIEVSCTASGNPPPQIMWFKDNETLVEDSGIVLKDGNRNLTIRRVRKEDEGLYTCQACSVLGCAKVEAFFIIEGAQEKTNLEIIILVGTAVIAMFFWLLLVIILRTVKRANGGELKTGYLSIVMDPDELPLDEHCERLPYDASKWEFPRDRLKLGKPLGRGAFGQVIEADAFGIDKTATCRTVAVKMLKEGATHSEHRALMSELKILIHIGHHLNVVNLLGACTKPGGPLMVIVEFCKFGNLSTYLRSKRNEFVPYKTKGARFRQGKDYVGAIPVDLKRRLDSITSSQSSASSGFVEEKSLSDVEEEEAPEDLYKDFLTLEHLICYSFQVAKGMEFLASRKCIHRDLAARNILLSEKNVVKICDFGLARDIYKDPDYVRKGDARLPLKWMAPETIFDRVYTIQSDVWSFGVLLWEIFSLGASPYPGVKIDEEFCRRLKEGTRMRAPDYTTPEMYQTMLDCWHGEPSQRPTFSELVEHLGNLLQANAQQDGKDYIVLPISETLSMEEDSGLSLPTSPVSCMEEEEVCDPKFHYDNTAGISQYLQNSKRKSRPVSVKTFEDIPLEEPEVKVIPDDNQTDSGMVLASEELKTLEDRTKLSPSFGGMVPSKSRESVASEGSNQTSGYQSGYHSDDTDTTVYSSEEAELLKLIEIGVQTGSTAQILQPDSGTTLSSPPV
His6-TEV-PDGFRβ (557-1016), sequence (P09619 557-1016): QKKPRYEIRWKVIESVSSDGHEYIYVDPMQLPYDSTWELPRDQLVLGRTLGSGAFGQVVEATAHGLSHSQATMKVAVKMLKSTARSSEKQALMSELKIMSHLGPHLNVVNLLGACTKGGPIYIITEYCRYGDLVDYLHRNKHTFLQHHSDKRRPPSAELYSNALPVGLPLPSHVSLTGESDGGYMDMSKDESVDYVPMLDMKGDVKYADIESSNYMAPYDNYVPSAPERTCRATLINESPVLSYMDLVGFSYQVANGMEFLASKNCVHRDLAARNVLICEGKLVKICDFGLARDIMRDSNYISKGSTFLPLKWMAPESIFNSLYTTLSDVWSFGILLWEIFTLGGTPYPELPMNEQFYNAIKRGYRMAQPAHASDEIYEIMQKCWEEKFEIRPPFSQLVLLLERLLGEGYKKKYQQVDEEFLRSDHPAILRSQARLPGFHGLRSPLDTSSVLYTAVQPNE

Compound | IC50 (VEGFR2, unphosphorylated) [µM] | IC50 [1] [nM]
Cc1cc(C(=O)NCCN2CC3CCC2CC3)sc1NC(=O)c1cnn2cc(-c3cnn(C)c3)sc12 [Example 199, N-(5-((2-(2-azabicyclo[2.2.2]octan-2-yl)ethyl)carbamoyl)-3-methylthiophen-2-yl)-2-(1-methyl-1H-pyrazol-4-yl)pyrazolo[5,1-b]thiazole-7-carboxamide] | > 7.5 | 2
Cc1ncc(NC(=O)OCCN(C)C2CCCCC2)cc1NC(=O)c1cnn2cc(-c3cnn(C)c3)sc12 [Example 251, 2-(cyclohexyl(methyl)amino)ethyl (6-methyl-5-(2-(1-methyl-1H-pyrazol-4-yl)pyrazolo[5,1-b]thiazole-7-carboxamido)pyridin-3-yl)carbamate] | > 7.5 | 1.5
Cc1ncc(C(=O)NCCN2CC3CCC2CC3)cc1NC(=O)c1cnn2cc(-c3cnn(C4CC4)c3)sc12 [Example 181, N-(5-((2-(2-azabicyclo[2.2.2]octan-2-yl)ethyl)carbamoyl)-2-methylpyridin-3-yl)-2-(1-cyclopropyl-1H-pyrazol-4-yl)pyrazolo[5,1-b]thiazole-7-carboxamide] | > 7.5 | 0.2
Cc1cc(C(=O)NCCN2CCOCC23CC3)sc1NC(=O)c1cnn2cc(-c3cnn(C)c3)sc12 [Example 197, N-(5-((2-(7-oxa-4-azaspiro[2.5]octan-4-yl)ethyl)carbamoyl)-3-methylthiophen-2-yl)-2-(1-methyl-1H-pyrazol-4-yl)pyrazolo[5,1-b]thiazole-7-carboxamide] | > 7.5 | 11.5
Cc1ncc(C(=O)NCCN(CCO)CC2CCCCC2)cc1NC(=O)c1cnn2cc(-c3cnn(C)c3)sc12 [Example 235, N-(5-((2-((cyclohexylmethyl)(2-hydroxyethyl)amino)ethyl)carbamoyl)-2-methylpyridin-3-yl)-2-(1-methyl-1H-pyrazol-4-yl)pyrazolo[5,1-b]thiazole-7-carboxamide] | > 7.5 | 0.5
Cc1ncc(C(=O)NCCN2CCCC23CCC3)cc1NC(=O)c1cnn2cc(-c3c(C)nn(C)c3C)sc12 [Example 214, N-(5-((2-(5-azaspiro[3.4]octan-5-yl)ethyl)carbamoyl)-2-methylpyridin-3-yl)-2-(1,3,5-trimethyl-1H-pyrazol-4-yl)pyrazolo[5,1-b]thiazole-7-carboxamide] | > 7.5 | 0.3
Cc1ncc(NC(=O)OCC(C)N2CCCC2)cc1NC(=O)c1cnn2cc(-c3cnn(C)c3)sc12 (centres unmarked) [Example 248, 2-(pyrrolidin-1-yl)propyl (6-methyl-5-(2-(1-methyl-1H-pyrazol-4-yl)pyrazolo[5,1-b]thiazole-7-carboxamido)pyridin-3-yl)carbamate] | > 7.5 | 0.4
Cc1ncc(C(=O)NCCN2CCCC2(C)C)cc1NC(=O)c1cnn2cc(-c3cccc4c3cnn4C)sc12 [Example 240, N-(5-((2-(2,2-dimethylpyrrolidin-1-yl)ethyl)carbamoyl)-2-methylpyridin-3-yl)-2-(1-methyl-1H-indazol-4-yl)pyrazolo[5,1-b]thiazole-7-carboxamide] | > 2.5 | 0.3
Cc1cc(C(=O)NCCN2CCc3ccccc3C2)sc1NC(=O)c1cnn2cc(-c3cnn(C)c3)sc12 [Example 204, N-(5-((2-(3,4-dihydroisoquinolin-2 (1H)-yl)ethyl)carbamoyl)-3-methylthiophen-2-yl)-2-(1-methyl-1H-pyrazol-4-yl)pyrazolo[5,1-b]thiazole-7-carboxamide] | > 7.5 | 19.2
Cc1ncc(NC(=O)CN2CCCC23CC3)cc1NC(=O)c1cnn2cc(-c3cnn(C)c3)sc12 [Example 16, N-(5-(2-(4-azaspiro[2.4]heptan-4-yl)acetamido)-2-methylpyridin-3-yl)-2-(1-methyl-1H-pyrazol-4-yl)pyrazolo[5,1-b]thiazole-7-carboxamide] | > 7.5 | 0.5
Cc1ncc(NC(=O)OCCN2CCCC2(C)C)cc1NC(=O)c1cnn2cc(-c3cnn(C)c3)sc12 [Example 247, 2-(2,2-dimethylpyrrolidin-1-yl)ethyl (6-methyl-5-(2-(1-methyl-1H-pyrazol-4-yl)pyrazolo[5,1-b]thiazole-7-carboxamido)pyridin-3-yl)carbamate] | > 7.5 | 0.6
COCCn1cc(-c2cn3ncc(C(=O)Nc4cc(NC(=O)CCCN5CCC[C@@H]5C)cnc4C)c3s2)cn1 [Example 216, (S)-2-(1-(2-methoxyethyl)-1H-pyrazol-4-yl)-N-(2-methyl-5-(4-(2-methylpyrrolidin-1-yl)butanamido)pyridin-3-yl)pyrazolo[5,1-b]thiazole-7-carboxamide] | > 7.5 | 1.5
Cc1ncc(C(=O)NCCN2CCCC2)cc1NC(=O)c1cnn2cc(-c3cn(C)nc3C)sc12 [Example 218, 2-(1,3-Dimethyl-1H-pyrazol-4-yl)-N-(2-methyl-5-((2-(pyrrolidin-1-yl)ethyl)carbamoyl)pyridin-3-yl)pyrazolo[5,1-b]thiazole-7-carboxamide] | > 7.5 | 0.3
Cc1ncc(C(=O)N2CC2CNC(C)(C)C)cc1NC(=O)c1cnn2cc(-c3cccc4c3cnn4C)sc12 (centres unmarked) [Example 239, N-(5-(2-((tert-butylamino)methyl)aziridine-1-carbonyl)-2-methylpyridin-3-yl)-2-(1-methyl-1H-indazol-4-yl)pyrazolo[5,1-b]thiazole-7-carboxamide] | > 2.5 | 5
COc1ncccc1-c1cn2ncc(C(=O)Nc3cc(C(=O)NCCN4CCCC4)cnc3C)c2s1 [Example 229, 2-(2-Methoxypyridin-3-yl)-N-(2-methyl-5-((2-(pyrrolidin-1-yl)ethyl)carbamoyl)pyridin-3-yl)pyrazolo[5,1-b]thiazole-7-carboxamide] | > 0.833 | 0.2
Cc1cc(C(=O)NCCN2CCCC2(C)C)sc1NC(=O)c1cnn2cc(-c3cncnc3)sc12 [Example 185, N-(5-((2-(2,2-dimethylpyrrolidin-1-yl)ethyl)carbamoyl)-3-methylthiophen-2-yl)-2-(pyrimidin-5-yl)pyrazolo[5,1-b]thiazole-7-carboxamide] | > 7.5 | 704
Cc1ncc(NC(=O)OC[C@@H]2CCCN2C)cc1NC(=O)c1cnn2cc(-c3cnn(C)c3)sc12 [Example 243, (S)-(1-methylpyrrolidin-2-yl)methyl (6-methyl-5-(2-(1-methyl-1H-pyrazol-4-yl)pyrazolo[5,1-b]thiazole-7-carboxamido)pyridin-3-yl)carbamate] | > 7.5 | 0.5
Cc1ncc(NC(=O)CN2CCC(F)(F)CC2)cc1NC(=O)c1cnn2cc(-c3cnn(C)c3)sc12 [Example 14, N-(5-(2-(4,4-difluoropiperidin-1-yl)acetamido)-2-methylpyridin-3-yl)-2-(1-methyl-1H-pyrazol-4-yl)pyrazolo[5,1-b]thiazole-7-carboxamide] | > 7.5 | 0.4
Cc1cc(C(=O)NCCN2CCCC2(C)C)sc1NC(=O)c1cnn2cc(-c3cnn(C)c3)sc12 [Example 182, N-(5-((2-(2,2-dimethylpyrrolidin-1-yl)ethyl)carbamoyl)-3-methylthiophen-2-yl)-2-(1-methyl-1H-pyrazol-4-yl)pyrazolo[5,1-b]thiazole-7-carboxamide] | > 7.5 | 24.1

Reference: patent publication US20240109917A1 (ACTELION PHARMACEUTICALS LTD, priority 2020, published 2024)
